In patent US7931909B2, “Ocular therapy using alpha-2 adrenergic receptor compounds having enhanced anterior clearance rates” (Allergan, Inc., priority 2005, dated 2011):
Where two headings read alike, the source gives them in different places. Marks after values point to notes of the source that are not given here. Blank lines part the entries; values can stand above or below the compound they belong to.

Key:
[1] = intravitreal PLA implant, 200 micrograms brimonidine, rabbit eyes
in vivo [2] = conditions: rabbit, other: intravitreal implant, 200 micrograms
in vivo [3] = conditions: albino, rabbit, vitreous humor, 928 ng
[4] = test system: organic cation transporter present in the conjunctiva; conditions: cited from earlier work
[5] = biological target: alpha 2 adrenergic receptor; conditions: read-out: EC50 to activate the alpha 2 adrenergic receptor; isolated assay systems; cited from earlier work
[6] = Pharmacokinetics of brimonidine drug delivery systems administered subconjunctivally; type: in vivo, New Zealand White rabbits; conditions: all samples, subconjunctival drug delivery systems, rabbit
From the text: Thirty groups of rabbits (2 rabbits per group) were used. The groups were divided into 6 sections of 5 groups. […] In each section, one group underwent ophthalmic observation at 5 days after dosing (DAD) and were euthanized at 8 DAD, one group underwent ophthalmic observation at 5 and 29 DAD and were euthanized at 31 DAD, one group underwent ophthalmic observation at 5, 29, and 54 DAD and were euthanized at 60 DAD, and two groups underwent ophthalmic observation at 5, 29, 54, and 86 DAD and were euthanized at 93 DAD.
Eyes were prepared for surgery by topical application of two drops of 1% tropicamide and two drops of phenylephrine hydrochloride 2.5%. Betadine was applied and washed from the eyes, and 1-2 drops of 0.5% proparacaine hydrochloride were delivered to each eye. […] Rods and wafers were administered using forceps. Conjunctivae were sutured closed and received a ocular lubricant. Subconjunctival injections were performed by elevating the bulbar conjunctiva in the dorsotemporal quadrant using forceps. An injection was made into the subconjunctival space.
In the above, the samples were quantified using LC-MS/MS methods with quantitation limits of 10 ng/mL for aqueous and vitreous humor samples, 0.05 ng/mL for plasma samples, 0.5 ng for iris-ciliary body samples, lens samples, and retina samples.

[7] = cited from earlier work

Brimonidine Concentration Iris-ciliary body ([1]; Day 8, mean (N = 2)): 942 ng/g
Brimonidine Concentration Iris-ciliary body, estimated mean value in parentheses ([1]; Day 8, two samples above the limit of quantitation): 3010 ng/g
Brimonidine Concentration Vitreous humor ([1]; Day 31, mean ± SEM): 9.35 ± 6.25^b ng/mL
Brimonidine Concentration Lens ([1]; Day 58, mean ± SEM): 17.9 ± 12.5^b ng/g
Brimonidine Concentration Retina ([1]; Day 58, mean ± SEM): 122 ± 57.3^a ng/g
Brimonidine Concentration Vitreous humor ([1]; Day 58, mean ± SEM): 5.6 ± 3.24^b ng/mL
Brimonidine Concentration Iris-ciliary body ([1]; Day 91, mean ± SEM): 42.9 ± 18.7^c ng/g
Brimonidine Concentration Retina ([1]; Day 91, mean ± SEM): 488 ± 471^b ng/g
Brimonidine Concentration Lens ([1]; Day 136, mean ± SEM): 16.2 ± 12.3^a ng/g
Brimonidine Concentration Lens ([1]; Day 184, mean ± SEM): 1.18 ± 0.71^b ng/g
Brimonidine Concentration Retina ([1]; Day 184, mean ± SEM): 59.8 ± 35.0^b ng/g
concentration at 31 day (in vivo [2]; iris-ciliary body): 25.9 ± 9.11 ng/g
concentration at 58 day (in vivo [2]; iris-ciliary body): 69.4 ± 55.3 ng/g
concentration at 136 day (in vivo [2]; iris-ciliary body): 107 ± 41.5 ng/g
concentration at 8 day (in vivo [2]; lens): 45.1 ± 13.4 ng/g
concentration at 31 day (in vivo [2]; lens): 17 ± 3.92 ng/g
concentration at 91 day (in vivo [2]; lens): 50.1 ± 14.8 ng/g
concentration at 8 day (in vivo [2]; retina): 3630 ± 2110 ng/g
concentration at 31 day (in vivo [2]; retina): 35.3 ± 15.5 ng/g
concentration at 136 day (in vivo [2]; retina): 22.6 ± 5.9 ng/g
concentration at 8 day (in vivo [2]; vitreous humor): 47.2 ± 13.1 ng/mL
concentration at 91 day (in vivo [2]; vitreous humor): 59.3 ± 43.2 ng/mL
clearance (in vivo [3]): 0.00812 mL/min
half-life (in vivo [3]): 87 min
concentration at 0.5 h (in vivo [3]; other: intravitreal injection): 608 ± 116 ng/mL
concentration at 10 h (in vivo [3]; other: intravitreal injection): 9.68 ± 6.48 ng/mL
vitreal clearance rate (as restated in Example 3): 0.487 mL/day
route of elimination from the vitreous (conclusion from intravitreal clearance, rabbit): trans-retinal route
Plasma brimonidine concentrations [6]: below the lower limit of quantitation
Compound: Brc1c(NC2=NCCN2)ccc2nccnc12 [brimonidine, 5-bromo-6-(2-imidazolidinylideneamino)quinoxaline]
substrate for the organic cation transporter [4]: substrate
EC50 [5]: ~2 nM

Compound: brimonidine tartrate
solubility in water ([7]; in water): 34 mg/mL
solubility in a pH 7.0 phosphate buffer ([7]; pH 7.0 phosphate buffer): 2.4 mg/mL
